PMC10067601, “Identification of a peptide ligand for human ALDH3A1 through peptide phage display: Prediction and characterization of protein interaction sites and inhibition of ALDH3A1 enzymatic activity” (Frontiers in Molecular Biosciences, 2023)

Target: T1, human recombinant ALDH3A1 (Homo sapiens, UniProt P30838)
T1 construct: 6xHis (C); made in house; host or cells: E. coli, with chaperone co-expression (pG-KJE8 plasmid)
T1 sequence (P30838 1-453): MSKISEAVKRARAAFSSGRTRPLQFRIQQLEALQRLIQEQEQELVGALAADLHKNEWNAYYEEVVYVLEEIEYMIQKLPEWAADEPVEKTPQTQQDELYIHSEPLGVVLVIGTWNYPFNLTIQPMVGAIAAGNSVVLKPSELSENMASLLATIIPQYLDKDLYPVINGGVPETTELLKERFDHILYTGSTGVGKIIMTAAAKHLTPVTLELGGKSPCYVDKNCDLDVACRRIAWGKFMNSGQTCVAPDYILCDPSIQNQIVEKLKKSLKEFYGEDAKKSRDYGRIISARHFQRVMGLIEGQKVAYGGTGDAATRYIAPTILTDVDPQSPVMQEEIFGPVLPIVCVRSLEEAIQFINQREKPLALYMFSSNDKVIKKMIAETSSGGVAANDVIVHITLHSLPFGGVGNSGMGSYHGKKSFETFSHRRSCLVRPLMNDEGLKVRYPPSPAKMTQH
Assay: ALDH3A1 enzymatic assay, benzaldehyde oxidation
Assay type: biochemical
Conditions: for Enzymatic activity, % of control (Mean%): 40 μM CB29; for Enzymatic activity, % of control (Mean%) / Enzymatic Activity, AVERAGE of triplicates: mean of n = 3
Protocol: The ability of ALDH3A1 to oxidize benzaldehyde in the presence of P1 was estimated by monitoring the production of NADH as described earlier with minor modifications ([Voulgaridou et al., 2013]). Human recombinant ALDH3A1 was combined with P1 and diluted in Milli-Q water, at 1:1,000. The final reaction was placed in a 0.5 mL quartz cuvette containing 50 mM Tris-HCl pH 8.5, 50 mM 2-Mercaptoethanol, 1.5 mM […], 20 nM ALDH3A1, 20 μM P1, and 1 mM Benzaldehyde. The reaction was initiated by the addition of the benzaldehyde substrate and was monitored at 340 nm for 5 min using a spectrophotometer (Libra S22, Biochrom Ltd, Cambridge, United Kingdom). In the case of CB29, the final reaction contained 40 μM CB29. Enzymatic activity was calculated as dOD/dT∗molarextinctioncoeiffcient∗pathcorrection∗enzyme^′sconcentrationinfinalreaction where, dT = minutes, molar extinction coefficient = 6220 M^-1/cm, path correction = 1 cm.
All experiments were conducted in triplicates and presented as % of the control’s enzymatic activity. As a control, the final reaction contained the respective Milli-Q water volume without P1 or CB29.
At least three independent experiments were performed for each condition tested. The values are expressed as the mean ± standard deviation (SD). Statistical analysis was performed with Graph Pad Prism software (version 9.4.1) (Graph Pad Inc., La Jolla, CA, United States). For all assays, statistical differences between groups were evaluated either by Student’s t-test or ANOVA, for multiple comparisons, followed by Dunnett’s or Tukey’s test. A level of p < 0.01 was considered statistically significant.

[1] = 20 μM P1 (n = 4) or 40 μM CB29 (n = 3)

Enzymatic activity, % of control, AVERAGE of experiments (20 μM P1 (4 experiments) or 40 μM CB29 (3 experiments), 1 mM benzaldehyde, 20 nM ALDH3A1, pH 8.5, 340 nm, 5 min): 52.9548%
25% Percentile, % of control activity [1]: 47.24
75% Percentile, % of control activity [1]: 56.68
Lower 95% CI of mean, % of control activity [1]: 40.48
Maximum, % of control activity [1]: 56.68
Mean, % of control activity [1]: 52.95
Median, % of control activity [1]: 54.95
Minimum, % of control activity [1]: 47.24
Upper 95% CI of mean, % of control activity [1]: 65.43
Enzymatic activity, % of control (Mean%) (CB29 Exp1, 1 mM benzaldehyde, 20 nM ALDH3A1, pH 8.5, 340 nm): 56.6779%
Enzymatic activity, % of control (Mean%) (CB29 Exp2, 1 mM benzaldehyde, 20 nM ALDH3A1, pH 8.5, 340 nm): 54.9455%
Enzymatic activity, % of control (Mean%) (CB29 Exp3, 1 mM benzaldehyde, 20 nM ALDH3A1, pH 8.5, 340 nm): 47.241%
Enzymatic Activity, AVERAGE of triplicates (CB29 Exp1, 40 μM): 7.722 µmol/min/mg
Enzymatic Activity, AVERAGE of triplicates (CB29 Exp2, 40 μM): 6.9085 µmol/min/mg
Enzymatic Activity, AVERAGE of triplicates (CB29 Exp3, 40 μM): 7.406 µmol/min/mg
95,00% CI of diff, control vs. compound (Dunnett's multiple comparisons, 20 μM P1 or 40 μM CB29): 37,23 to 56,86
Mean Diff, control vs. compound (Dunnett's multiple comparisons, 20 μM P1 or 40 μM CB29, % of control activity): 47.05
SMILES: CC(=O)Nc1ccc(Nc2ccc(S(C)(=O)=O)cc2[N+](=O)[O-])cc1 [CB29, reference compound]
